Measurements published in patent US10870638B2, “Pyridazinone compound or its salt, and herbicide containing it” (ISHIHARA SANGYO KAISHA, LTD., priority 2016, dated 2020).

Experiments:
Type in all cases: in vivo
Conditions in all cases: 14th day after application
[1] = system: italian ryegrass (Lolium multiflorum Lam.); assay: Test Example 1: foliar treatment, growth inhibition rate on 14th day
How it was run: (§1)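 Visual 0–100% inhibition scoring (100 = complete kill) at 14 days after foliar treatment of soil-grown seedlings at species-specific leaf stages, with the compound sprayed as a wettable powder or emulsifiable concentrate dilution.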

corn (Zea mays L.) [2] = assay: as above
How it was run: as §1

rice (Oryza sativa L.) [3] = assay: as above
How it was run: (§2)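 Using a small sprayer, formulated compound in water (0.1 vol % surfactant, 1,000 L/ha) was applied to seedlings grown from seed in upland soil. Fourteen days on, growth state was observed and expressed as percent inhibition from 0 to 100.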

[4] = system: wild oat (Avena fatua L.); assay: as above
How it was run: as §2

[5] = system: crabgrass (Digitaria sanquinalis L.); assay: as above
How it was run: as §1

[6] = system: barnyardgrass (Echinochloa crus-qalli L.); assay: as above
How it was run: as §1

[7] = system: wheat (Triticum aestivum L.); assay: as above
How it was run: as §1

[8] = system: soybean (Glycine max Merr.); assay: as above
How it was run: as §2

[9] = system: redroot pigweed (Amaranthus retroflexus L.); assay: as above
How it was run: as §1

[10] = system: green foxtail (Setaria viridis L.); assay: as above
How it was run: as §2

corn (Zea mays L.) [11] = assay: Test Example 2: soil application on the day after sowing, growth inhibition rate on 14th day
How it was run: (§3)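 Herbicidal effect is assessed on pot-grown plants after a soil spray applied the day after sowing at prescribed active ingredient rates. Scoring occurs visually at day 14 as growth inhibition (%).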

[12] = system: prickly sida (Sida spinosa L.); assay: as above
How it was run: as §3

[13] = system: crabgrass (Digitaris sanquinalis L.); assay: as above
How it was run: as §3

rice (Oryza sativa L.) [14] = assay: as above
How it was run: as §3

[15] = system: velvetleaf (Abutilon theophrasti MEDIC.); assay: as above
How it was run: as §3

[16] = system: barnyardgrass (Echinochloa crus-qalli L.); assay: as above
How it was run: as §3

[17] = system: wheat (Triticum aestivum L.); assay: as above
How it was run: as §3

[18] = system: soybean (Glycine max Merr.); assay: as above
How it was run: as §3

[19] = system: redroot pigweed (Amaranthus retroflexus L.); assay: as above
How it was run: as §3

[20] = system: green foxtail (Setaria viridis L.); assay: as above
How it was run: as §3

[21] = active ingredient amount 31 g/ha
[22] = active ingredient amount 500 g/ha
[23] = active ingredient amount 31 g/ha, visual, 0 = non-treated, 100 = complete kill

| SMILES | Growth inhibition rate (%) Italian ryegrass [1, 21] [%] | Growth inhibition rate (%) Corn (corn (Zea mays L.) [2]; [21]) [%] | Growth inhibition rate (%) Rice (rice (Oryza sativa L.) [3]; [21]) [%] | Growth inhibition rate (%) Wild oat [4, 21] [%] | Growth inhibition rate (%) Crabgrass [5, 21] [%] | Growth inhibition rate (%) Barnyardgrass [6, 21] [%] | Growth inhibition rate (%) Wheat [7, 21] [%] | Growth inhibition rate (%) Soybean [8, 21] [%] | Growth inhibition rate (%) Redroot pigweed [9, 21] [%] | Growth inhibition rate (%) Green foxtail [10, 21] [%] | Growth inhibition rate (%) Corn (corn (Zea mays L.) [11]; [21]) [%] | Growth inhibition rate (%) Prickly sida [12, 21] [%] | Growth inhibition rate (%) Crabgrass [13, 21] [%] | Growth inhibition rate (%) Rice (rice (Oryza sativa L.) [14]; [21]) [%] | Growth inhibition rate (%) Velvetleaf [15, 21] [%] | Growth inhibition rate (%) Barnyardgrass [16, 21] [%] | Growth inhibition rate (%) Wheat [17, 21] [%] | Growth inhibition rate (%) Soybean [18, 21] [%] | Growth inhibition rate (%) Redroot pigweed [19, 21] [%] | Growth inhibition rate (%) Green foxtail [20, 21] [%] | further results |
| --- | --- | --- | --- | --- | --- | --- | --- | --- | --- | --- | --- | --- | --- | --- | --- | --- | --- | --- | --- | --- | --- |
| COCOc1c(C)nn(C)c(=O)c1-c1cc(Oc2ncc(C(F)(F)F)cc2Cl)ccc1C [1-132] | 98 | 99 | 88 | 98 | 100 | 100 | 98 | 20 | 0 | 100 | 10 | 0 | 93 | 0 | 0 | 99 | 0 | 0 | 0 | 98 |  |
| Cc1ccc(Oc2ccc3ccccc3n2)cc1-c1c(O)c(C)nn(C)c1=O [Compound 2-108] |  |  |  |  |  |  |  |  |  |  |  |  |  |  |  |  |  |  |  |  | Growth inhibition rate (%) Italian ryegrass [1, 22]: 10%; Growth inhibition rate (%) Corn (corn (Zea mays L.) [2]; [22]): 10%; Growth inhibition rate (%) Rice (rice (Oryza sativa L.) [3]; [22]): 93%; Growth inhibition rate (%) Wild oat [4, 22]: 50%; Growth inhibition rate (%) Crabgrass [5, 22]: 85%; Growth inhibition rate (%) Barnyardgrass [6, 22]: 100%; Growth inhibition rate (%) Wheat [7, 22]: 50%; Growth inhibition rate (%) Soybean [8, 22]: 20%; Growth inhibition rate (%) Redroot pigweed [9, 22]: 0%; Growth inhibition rate (%) Green foxtail [10, 22]: 95%; Growth inhibition rate (%) Corn (corn (Zea mays L.) [11]; [22]): 0%; Growth inhibition rate (%) Prickly sida [12, 22]: 0%; Growth inhibition rate (%) Crabgrass [13, 22]: 98%; Growth inhibition rate (%) Rice (rice (Oryza sativa L.) [14]; [22]): 93%; Growth inhibition rate (%) Velvetleaf [15, 22]: 0%; Growth inhibition rate (%) Barnyardgrass [16, 22]: 100%; Growth inhibition rate (%) Wheat [17, 22]: 0%; Growth inhibition rate (%) Soybean [18, 22]: 0%; Growth inhibition rate (%) Redroot pigweed [19, 22]: 0%; Growth inhibition rate (%) Green foxtail [20, 22]: 93% |
| CC(=O)Oc1cnn(C)c(=O)c1-c1cc(Oc2ncc(C(F)(F)F)cc2Cl)ccc1C [1-171] | 100 | 100 | 85 | 100 | 100 | 100 | 83 | 0 | 0 | 100 | 0 | 0 | 100 | 0 | 0 | 100 | 0 | 0 | 0 | 100 |  |
| CCn1nc(C)c(O)c(-c2cc(Oc3nc4ccc(Cl)cc4o3)ccc2C)c1=O [Compound 2-176] | 85 | 80 | 10 | 25 | 99 | 100 | 0 | 0 | 0 | 100 | 0 | 0 | 98 | 60 | 0 | 100 | 0 | 0 | 0 | 99 |  |
| CC(=O)Oc1c(C)nn(C)c(=O)c1-c1cc(Sc2ncc(C(F)(F)F)cc2Cl)ccc1C [1-42] | 100 | 100 | 88 | 100 | 100 | 100 | 100 | 10 | 10 | 100 | 40 | 0 | 100 | 80 | 0 | 100 | 0 | 0 | 0 | 100 |  |
| CC(=O)Oc1c(C)nn(C)c(=O)c1-c1cc(Oc2ncc(C(F)(F)F)cc2Cl)ccc1C1CC1 [1-150] | 100 | 95 | 88 | 100 | 100 | 100 | 99 | 0 | 0 | 100 | 0 | 0 | 98 | 0 | 0 | 99 | 0 | 0 | 0 | 98 |  |
| CCn1nc(C)c(O)c(-c2cc(Oc3cnc4cc(Cl)ccc4n3)ccc2C)c1=O [Compound 3-96] |  |  |  |  |  |  |  |  |  |  | 0 | 0 | 98 | 75 | 0 | 99 | 0 | 0 | 0 | 85 | Growth inhibition rate (%) Italian ryegrass [1, 23]: 99%; Growth inhibition rate (%) Corn (corn (Zea mays L.) [2]; [23]): 20%; Growth inhibition rate (%) Rice (rice (Oryza sativa L.) [3]; [23]): 95%; Growth inhibition rate (%) Wild oat [4, 23]: 98%; Growth inhibition rate (%) Crabgrass [5, 23]: 100%; Growth inhibition rate (%) Barnyardgrass [6, 23]: 100%; Growth inhibition rate (%) Wheat [7, 23]: 95%; Growth inhibition rate (%) Soybean [8, 23]: 0%; Growth inhibition rate (%) Redroot pigweed [9, 23]: 0%; Growth inhibition rate (%) Green foxtail [10, 23]: 100% |
